The target in one series is Cytochrome P450 2D6 (Homo sapiens, UniProt P10635). The series is described as follows: Inhibition of human CYP2D6. The series is classed as ADME.
Series [1] relates to Rattus norvegicus. In words: Antiinflammatory activity in rat assessed as inhibition of calcium ionophore A23187-induced LTB4 production in bronchoalveolar lavage fluid at 3 mg/kg, po administered 4 hrs prior to A23187 challenge. Also noted: scale not given: the % may be the effect or the level left. The series is classed as functional, Lung.
For series [2], the target named is T1, Arachidonate 5-lipoxygenase-activating protein (Homo sapiens, UniProt P20292).
T1 sequence (P20292 whole entry): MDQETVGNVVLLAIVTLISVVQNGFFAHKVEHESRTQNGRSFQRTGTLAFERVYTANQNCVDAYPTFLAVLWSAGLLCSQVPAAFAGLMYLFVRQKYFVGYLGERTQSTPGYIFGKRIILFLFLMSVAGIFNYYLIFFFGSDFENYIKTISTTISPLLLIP
The series is described as follows: Inhibition of FLAP in human whole blood assessed as inhibition of calcium ionophore A23187-induced LTB4 production preincubated for 5 hrs by ELISA. (An ELISA detects its analyte on a solid surface through an enzyme-linked reagent.)

For series [3], the target named is T2, Polyunsaturated fatty acid 5-lipoxygenase (Homo sapiens, UniProt P09917).
T2 sequence (P09917 whole entry): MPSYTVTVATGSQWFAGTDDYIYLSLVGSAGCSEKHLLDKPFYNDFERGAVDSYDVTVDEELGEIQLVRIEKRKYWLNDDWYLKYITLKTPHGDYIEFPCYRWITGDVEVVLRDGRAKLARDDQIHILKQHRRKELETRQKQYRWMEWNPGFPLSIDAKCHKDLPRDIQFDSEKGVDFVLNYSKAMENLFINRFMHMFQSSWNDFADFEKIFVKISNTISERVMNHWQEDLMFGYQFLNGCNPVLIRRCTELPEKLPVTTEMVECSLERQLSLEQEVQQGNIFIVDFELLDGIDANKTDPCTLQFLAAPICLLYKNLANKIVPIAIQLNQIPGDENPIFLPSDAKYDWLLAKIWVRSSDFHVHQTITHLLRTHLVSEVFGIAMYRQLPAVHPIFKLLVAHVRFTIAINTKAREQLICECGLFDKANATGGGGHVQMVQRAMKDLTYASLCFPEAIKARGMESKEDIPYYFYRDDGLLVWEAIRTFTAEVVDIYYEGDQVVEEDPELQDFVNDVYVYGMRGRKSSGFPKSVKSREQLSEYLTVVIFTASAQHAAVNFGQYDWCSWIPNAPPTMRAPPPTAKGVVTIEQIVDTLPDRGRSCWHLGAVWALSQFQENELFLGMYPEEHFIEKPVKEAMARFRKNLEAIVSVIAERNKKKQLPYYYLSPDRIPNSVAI
The series is described as follows: Inhibition of 5-lipoxygenase.

The subject of the next series is Plasma. In words: Plasma protein binding in dog. Type of series: ADME, cell-free, Canis lupus familiaris.
A further series has as its target Cytochrome P450 2C9 (Homo sapiens, UniProt P11712). In words: Inhibition of human CYP2C9. The series is classed as ADME.
In series [4] the target is T1, Arachidonate 5-lipoxygenase-activating protein. The series is described as follows: Inhibition of FLAP in human peripheral leukocytes assessed as inhibition of calcium ionophore A23187-induced LTB4 production after 10 mins by ELISA in presence of 0.5% human serum albumin. Type of series: cell-based.
The target of series [5] is T3, Leukotriene A-4 hydrolase (Homo sapiens, UniProt P09960).
T3 sequence (P09960 whole entry): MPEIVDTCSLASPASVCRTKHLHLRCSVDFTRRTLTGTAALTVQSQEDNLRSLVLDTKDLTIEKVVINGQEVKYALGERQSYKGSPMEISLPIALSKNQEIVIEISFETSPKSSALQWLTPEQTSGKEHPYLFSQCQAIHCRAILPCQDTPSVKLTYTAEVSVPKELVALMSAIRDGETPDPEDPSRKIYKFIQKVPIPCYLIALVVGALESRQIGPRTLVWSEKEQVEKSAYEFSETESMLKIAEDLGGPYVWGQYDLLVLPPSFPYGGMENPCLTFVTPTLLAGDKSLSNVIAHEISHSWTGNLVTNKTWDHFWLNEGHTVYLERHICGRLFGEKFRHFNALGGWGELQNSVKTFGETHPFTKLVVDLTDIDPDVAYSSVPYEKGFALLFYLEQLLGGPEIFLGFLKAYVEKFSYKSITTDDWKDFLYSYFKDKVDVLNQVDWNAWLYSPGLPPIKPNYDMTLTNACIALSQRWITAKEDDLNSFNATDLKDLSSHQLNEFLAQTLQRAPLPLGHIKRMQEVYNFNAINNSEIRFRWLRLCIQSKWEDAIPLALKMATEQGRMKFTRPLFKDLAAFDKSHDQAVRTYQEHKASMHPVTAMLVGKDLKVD
The series is described as follows: Inhibition of LTA4 […].

Series [6] deals with T1, Arachidonate 5-lipoxygenase-activating protein. In words: Inhibition of FLAP in human whole blood assessed as inhibition of calcium ionophore A23187-induced LTB4 production preincubated for 15 mins by ELISA.
Series [7] in a line: Half life in Beagle dog at 2 mg/kg, iv. The series is classed as ADME, organism-based, Canis lupus familiaris. Also noted: dose 2 mg/kg, route intravenous. The settings on record: in vivo.
The nature of series [8]: Plasma protein binding in human. Type of series: ADME, cell-free. The settings on record: read-out: PPB (converted).
The subject of series [9] is Rattus norvegicus. The series is described as follows: Antiinflammatory activity in rat assessed as inhibition of calcium ionophore A23187-induced LTB4 production in bronchoalveolar lavage fluid at 3 mg/kg, po administered 16 hrs prior to A23187 challenge. Type of series: functional, Lung. More on the design: scale not given: the % may be the effect or the level left.

The nature of series [10]: Clearance in Beagle dog at 2 mg/kg, iv. Type of series: ADME, organism-based, Canis lupus familiaris. More on the design: dose 2 mg/kg, route intravenous. Conditions: in vivo.
Series [11] can be described thus: Plasma protein binding in rat. The series is classed as ADME, cell-free. Conditions: read-out: PPB (converted).
The nature of series [12]: Oral bioavailability in Beagle dog at 5 mg/kg. Type of series: ADME, organism-based, Canis lupus familiaris. The settings on record: in vivo.
Series [13] deals with Rattus norvegicus. In words: Antiinflammatory activity in rat assessed as inhibition of calcium ionophore A23187-induced CysLT production in bronchoalveolar lavage fluid at 3 mg/kg, po administered 4 hrs prior to A23187 challenge. The series is classed as functional, Lung. More on the design: scale not given: the % may be the effect or the level left.
The target of series [14] is T1, Arachidonate 5-lipoxygenase-activating protein. In words: Inhibition of FLAP in human peripheral leukocytes assessed as inhibition of calcium ionophore A23187-induced LTB4 production after 3 hr by ELISA in presence of 0.5% human serum albumin. The series is classed as cell-based.
The target in another series is Cytochrome P450 3A4 (Homo sapiens, UniProt P08684). In words: Inhibition of human CYP3A4. The series is classed as ADME.
Series [15] addresses T4, Prostaglandin G/H synthase 2 (Homo sapiens, UniProt P35354).
T4 sequence (P35354 whole entry): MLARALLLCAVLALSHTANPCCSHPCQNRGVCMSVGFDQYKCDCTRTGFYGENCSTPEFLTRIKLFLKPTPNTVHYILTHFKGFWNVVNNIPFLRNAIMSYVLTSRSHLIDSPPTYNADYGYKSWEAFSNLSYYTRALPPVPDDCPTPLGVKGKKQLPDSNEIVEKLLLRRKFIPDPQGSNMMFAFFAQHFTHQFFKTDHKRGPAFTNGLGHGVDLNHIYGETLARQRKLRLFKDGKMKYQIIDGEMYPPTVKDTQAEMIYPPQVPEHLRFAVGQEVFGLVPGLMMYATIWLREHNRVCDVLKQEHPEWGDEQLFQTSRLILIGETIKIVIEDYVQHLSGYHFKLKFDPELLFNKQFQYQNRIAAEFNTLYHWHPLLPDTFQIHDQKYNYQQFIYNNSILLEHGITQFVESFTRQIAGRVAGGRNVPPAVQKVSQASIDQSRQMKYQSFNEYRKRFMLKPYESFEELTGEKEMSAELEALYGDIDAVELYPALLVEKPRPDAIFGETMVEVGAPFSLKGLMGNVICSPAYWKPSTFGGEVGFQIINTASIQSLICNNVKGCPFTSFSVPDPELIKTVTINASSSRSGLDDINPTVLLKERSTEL
In words: Inhibition of COX2-mediated PGE2 production in human whole blood assay.

A value given as a limit tells only on which side of the number the result lay.

Sequence of Cytochrome P450 3A4 (P08684 whole entry): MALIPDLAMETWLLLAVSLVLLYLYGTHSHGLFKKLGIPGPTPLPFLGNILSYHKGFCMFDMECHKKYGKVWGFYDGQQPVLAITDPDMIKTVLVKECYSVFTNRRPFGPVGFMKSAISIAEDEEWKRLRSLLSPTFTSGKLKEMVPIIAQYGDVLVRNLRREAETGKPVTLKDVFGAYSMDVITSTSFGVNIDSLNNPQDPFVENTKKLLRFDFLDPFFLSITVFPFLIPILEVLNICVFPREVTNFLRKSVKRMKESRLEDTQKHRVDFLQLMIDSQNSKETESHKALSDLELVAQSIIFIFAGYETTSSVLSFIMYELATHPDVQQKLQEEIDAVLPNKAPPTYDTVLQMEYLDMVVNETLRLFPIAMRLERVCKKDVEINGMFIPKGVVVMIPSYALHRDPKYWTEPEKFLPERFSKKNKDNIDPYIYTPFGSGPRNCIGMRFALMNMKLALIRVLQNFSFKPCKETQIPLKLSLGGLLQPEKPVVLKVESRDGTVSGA
Sequence of Cytochrome P450 2C9 (P11712 whole entry): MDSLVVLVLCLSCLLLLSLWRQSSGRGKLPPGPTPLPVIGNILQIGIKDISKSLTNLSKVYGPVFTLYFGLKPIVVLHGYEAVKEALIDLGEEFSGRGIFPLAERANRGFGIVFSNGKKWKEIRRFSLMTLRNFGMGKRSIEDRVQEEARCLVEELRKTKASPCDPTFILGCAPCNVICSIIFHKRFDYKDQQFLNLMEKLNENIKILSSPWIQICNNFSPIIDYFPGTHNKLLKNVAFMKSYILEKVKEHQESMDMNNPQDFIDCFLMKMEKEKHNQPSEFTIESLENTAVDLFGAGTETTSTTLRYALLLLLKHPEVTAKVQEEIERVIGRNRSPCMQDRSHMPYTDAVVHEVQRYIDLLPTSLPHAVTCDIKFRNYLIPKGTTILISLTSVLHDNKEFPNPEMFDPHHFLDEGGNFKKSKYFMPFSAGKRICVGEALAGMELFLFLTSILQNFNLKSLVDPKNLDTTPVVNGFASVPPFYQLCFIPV
Sequence of Cytochrome P450 2D6 (P10635 whole entry): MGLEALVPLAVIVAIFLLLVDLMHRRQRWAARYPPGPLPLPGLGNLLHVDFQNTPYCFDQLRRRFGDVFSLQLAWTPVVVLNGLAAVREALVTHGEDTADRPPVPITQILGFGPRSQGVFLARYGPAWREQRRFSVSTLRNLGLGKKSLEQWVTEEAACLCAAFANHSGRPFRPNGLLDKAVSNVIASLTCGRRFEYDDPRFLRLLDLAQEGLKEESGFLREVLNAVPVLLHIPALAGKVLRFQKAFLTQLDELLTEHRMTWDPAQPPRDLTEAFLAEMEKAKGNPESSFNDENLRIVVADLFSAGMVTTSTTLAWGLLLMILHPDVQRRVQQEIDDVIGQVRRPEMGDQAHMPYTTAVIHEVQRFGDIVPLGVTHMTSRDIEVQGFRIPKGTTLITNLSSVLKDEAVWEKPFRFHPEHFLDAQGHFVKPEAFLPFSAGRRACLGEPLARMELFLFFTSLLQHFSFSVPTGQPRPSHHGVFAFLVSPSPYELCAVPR

Broadly, the IC50 is the point on the concentration scale where inhibition reaches its midpoint. In general, half-life refers to how long it takes for the measured level to halve. A word on the clearance: it is a measure of how efficiently the substance is removed, as volume per time. In general, bioavailability refers to dose-corrected exposure relative to a reference, in per cent. `CCOc1ccc(-c2ccc(Cn3c(CC(C)(C)C(=O)O)c(SC(C)(C)C)c4cc(OCc5ccc(C)cn5)ccc43)cc2)cn1` [FIBOFLAPON]: the IC50 is greater than 40000 nM at Cytochrome P450 2D6; 76 nM in series [2]; 20000 nM in series [3]; greater than 50000 nM against Cytochrome P450 2C9; 26 nM in [4]; greater than 100000 nM in series [5]. Moreover, the IC50 in series [6] is 506 nM; in [14], 4 nM; on Cytochrome P450 3A4 it was greater than 50000 nM; in series [15] it was greater than 100000 nM. Also, the results for the Activity in the series on Rattus norvegicus [1], in the series with Rattus norvegicus [9] and in the series on Rattus norvegicus [13] were 100%, 86% and 80%, respectively. The compound also returned a PPB with Plasma of 99.7%. The same compound gave a half-life in [7] of 13 h. Besides, the fraction unbound was 0.005 in series [8] and 0.002 in series [11]. Moreover, in [10], the clearance was determined as 0.6 mL/min/kg. In series [12], the bioavailability came to 51%.

Values taken from ChEMBL document CHEMBL1921749, “5-Lipoxygenase-activating protein (FLAP) inhibitors. Part 4: development of 3-[3-tert-butylsulfanyl-1-[4-(6-ethoxypyridin-3-yl)benzyl]-5-(5-methylpyridin-2-ylmethoxy)-1H-indol-2-yl]-2,2-dimethylpropionic acid (AM803), a potent, oral, once daily FLAP inhibitor” (J Med Chem, 2011).
